pIC50: −log10 of the molar value. Values joined by “and” are separate entries in the source; they are usually repeats but may differ in a detail not shown here. Equal values may be shown once. Bridge positions count the residues as written; N and C are the ends. Square brackets hold non-standard residues; d marks the D form. Peptide text beside a SMILES is read from it. Trp(1-Me) = Cn1cc(C[C@H](N)C(=O)O)c2ccccc21
Assays:
[1] = test system: complement alternative pathway (AP); experiment: C5b-9 ELISA (inhibition of C5b-9 terminal complex formation); type: biochemical, human
Protocol: (§1) Inhibition of the complement alternative pathway (AP) by compstatin family peptides was assayed by ELISA. Peptides were dissolved in phosphate buffered saline (PBS, 150 mM). Initial peptide concentrations were calculated using the Beer-Lambert Law with an extinction coefficient of 5,500 (1/M·cm) for Trp and 5,470 (1/M·cm) for methylated-Trp present in the sequence, at 280 nm. Nunc Maxisorp 96-well plates were coated with 1 μg lipopolysaccharides (LPS) from Salmonella enteriditis for ˜16 h at room temperature. Plates were washed three times with PBS/0.05% Tween-20 (PBS-T) between each step. Plates were blocked with 4% bovine serum albumin (BSA) in PBS-T for 1 h at 37° C. Serial peptide dilutions were performed in 96-well plates, using gelatin veronal-buffered saline with 5 mM MgCl2 and 10 mM EGTA (GVBS-MgEGTA). Normal human serum (Complement Technology Inc., Tyler, Tex., USA) was diluted in GVBS-MgEGTA and mixed with compstatin serial dilutions to a final concentration of 30%. Serum diluted in GVBS-MgEGTA and GVBS (containing 20 mM EDTA) were used as positive and negative controls for complement activation, respectively. Dilutions were preincubated for 15 minutes at room temperature, transferred to ELISA plates, and incubated for 1 h at 37° C. Generation of C3b and C5b-9 were assayed using horseradish peroxidase (HRP)-conjugated anti-C3 (MP Biomedicals, Solon, Ohio, USA) and anti-05b-9 aEll (Abcam, Cambridge, Mass., USA), respectively. Plates were washed and incubated with either anti-C3-HRP (1:5000 in 1% BSA/PBS-T) or anti-05b-9 (1:1000 in 1% BSA/PBS-T) for 1 h at 37° C. For C5b-9 detection, primary antibody incubation was followed by incubation with anti-mouse-HRP (BioRad, Hercules, Calif., USA) for 1 h at 37° C. (1:5000 in 1% BSA/PBS-T). Bound C3b and C5b-9 were quantified using a 3,3′,5,5′-tetramethylbenzidine substrate solution containing urea hydrogen peroxide in 0.11 M sodium acetate buffer, followed by a 1 N H2SO4 acid stop. Plates were measured spectrophotometrically at 450 nm. Percent inhibition of C3b and C5b-9 deposition was plotted against peptide concentration and the data was fitted to a logistic dose response curve with Prism software (GraphPad, San Diego, Calif., USA) to determine IC50 values.
(§2) In all assays, MgEGTA was used to chelate Ca′ ions required for classical/lectin pathway complement activation, while providing Mg′ necessary for AP activation. ELISAs allow for direct detection of C3b and C5b-9 formed during AP activation, while erythrocyte lysis assays provide a functional assessment of AP-mediated hemolysis in serum. […] Table 9 summarizes the IC50 values derived from the three different assays. […] The relative potencies of the peptides, based on the measured ICH values, are consistent across all three assays (Peptide III˜Peptide VI˜Peptide IX>Peptide I>Parent). Based on the assay conditions used in this study, peptides inhibited C5b-9 formation with moderately better efficacy than formation of C3b, while slightly higher concentrations were necessary to inhibit AP-mediated hemolysis.

complement system = experiment: Preliminary ELISA-based complement system inhibition assays, human serum; type: biochemical; conditions: preliminary data
Source text: For some of the peptides studied here, W1, W13, R1, and S-1S0, there is experimental evidence for inhibitory activity against hC3. […] The structural rationale was that the positively charged backbone amino group was disrupting the hydrophobic cluster at the termini (spanning residues 11-C2-V3-V4/C12/T13 of native compstatin), which was deemed necessary for binding and activity before the availability of the structure of the C3c-W4A9 complex, and that upon removal of the positive charge by acetylation the hydrophobic cluster was fortified and contributed to the 3-fold increase in activity. […] The peptide with the diserine extension is expected to be active, as the diserine was present at the N-terminus of the original 32-amino acid peptide that was identified in the phage-display and a subsequent study.

[2] = test system: complement alternative pathway (AP); experiment: C3b ELISA (inhibition of C3b formation); type: biochemical, human; conditions: for pIC50: Table 9, means from three independent experiments, read-out: IC50, C3b ELISA
Protocol: as §1, §2

complement activation = conditions: alternative pathway-mediated erythrocyte lysis; cited from earlier work
[3] = Table 9, means from three independent experiments, read-out: IC50, C5b-9 ELISA
[4] = table 13, read-out: C5b-9 ELISA IC50

Compound	pIC50 [1, 3]	pIC50 [1, 4]	inhibitory activity in human serum (in words) (complement system)	pIC50 [2]	inhibition less than other peptides ([1]; C5b-9 inhibition in ELISA, versus Peptides I, III, VI, IX)	pIC50 (complement activation)	inhibition less than other peptides ([2]; C3b inhibition in ELISA, versus Peptides I, III, VI, IX)
CC(=O)N[C@@H](CCCNC(=N)N)C(=O)N[C@H]1CSSC[C@@H](C(=O)N[C@H](C(N)=O)[C@@H](C)O)NC(=O)[C@H](CCCNC(=N)N)NC(=O)[C@H](Cc2c[nH]cn2)NC(=O)[C@H](C)NC(=O)CNC(=O)[C@H](Cc2c[nH]c3ccccc23)NC(=O)[C@H](CC(=O)O)NC(=O)[C@H](CCC(N)=O)NC(=O)[C@H](Cc2c[nH]c3ccccc23)NC(=O)[C@H](C(C)C)NC1=O [Peptide I, Ac- RCV WQDWGA HRCT-NH2] (Ac-RCVWQDWGAHRCT-NH2; disulfide 2-12)	5.69	6.00 and 5.70	higher than those of native compstatin and slightly lower than those of the W4A9 analog	5.59	–	–	–
CC[C@H](C)[C@H](NC(=O)[C@H](CO)NC(=O)[C@H](CCCNC(=N)N)NC(C)=O)C(=O)N[C@H]1CSSC[C@@H](C(=O)N[C@H](C(N)=O)[C@@H](C)O)NC(=O)[C@H](CCCNC(=N)N)NC(=O)[C@H](Cc2c[nH]cn2)NC(=O)[C@H](C)NC(=O)CNC(=O)[C@H](Cc2c[nH]c3ccccc23)NC(=O)[C@H](CC(=O)O)NC(=O)[C@H](CCC(N)=O)NC(=O)[C@H](Cc2cn(C)c3ccccc23)NC(=O)[C@H](C(C)C)NC1=O [Peptide VI, Ac-RS-ICV meWQDWGA HRCT-NH2]	5.95	6.22 and 5.96	–	5.76	–	–	–
CC(=O)N[C@@H](CCCNC(=N)N)C(=O)N[C@H]1CSSC[C@@H](C(=O)N[C@H](C(N)=O)[C@@H](C)O)NC(=O)[C@H](CCCNC(=N)N)NC(=O)[C@H](Cc2c[nH]cn2)NC(=O)[C@H](C)NC(=O)CNC(=O)[C@H](Cc2c[nH]c3ccccc23)NC(=O)[C@H](CC(=O)O)NC(=O)[C@H](CCC(N)=O)NC(=O)[C@H](Cc2cn(C)c3ccccc23)NC(=O)[C@H](C(C)C)NC1=O [Peptide III, Ac- RCV meWQDWGA HRCT-NH2] (Ac-RCV[Trp(1-Me)]QDWGAHRCT-NH2; disulfide 2-12)	5.97	6.22 and 5.96	–	5.85	–	–	–
CC[C@H](C)[C@H](N)C(=O)N[C@H]1CSSC[C@@H](C(=O)N[C@H](C(N)=O)[C@@H](C)O)NC(=O)[C@H](CCCN=C(N)N)NC(=O)[C@H](Cc2cnc[nH]2)NC(=O)[C@H](Cc2cnc[nH]2)NC(=O)CNC(=O)[C@H](Cc2c[nH]c3ccccc23)NC(=O)[C@H](CC(=O)O)NC(=O)[C@H](CCC(N)=O)NC(=O)[C@H](C(C)C)NC(=O)[C@H](C(C)C)NC1=O [Parent, ICV VQDWGH HRCT-NH2, reference compound]	4.73	4.73 and 4.90	–	4.46	10- to 15 fold	4.92	10- to 15 fold

Source: patent publication US9512180B2, “Compstatin analogs” (THE REGENTS OF THE UNIVERSITY OF CALIFORNIA, priority 2012, dated 2016)
